`O=C1CC(Oc2cccc3ccccc23)N1` (stereo unspecified) showed a logP of 2.66.

`O=C1CC(Sc2ccccc2C(=O)OCc2ccccc2)N1` (stereo unspecified): the logP was found to be 2.62. Compound `O=C1CC(Oc2ccc(C(=O)CCc3ccccc3)cc2)N1` (stereo unspecified) showed a logP of 2.48. `O=C1CC(Sc2ccccn2)N1` (stereo unspecified) had a logP of 1.81.

Turning to `O=C1CC(Oc2ccc3ccccc3c2)N1` (stereo unspecified), the logP stood at 2.29.

In turn, `O=C1CC(Oc2c3ccccc3cc3ccccc23)N1` (stereo unspecified) displayed a logP of 3.08. `O=C1CC(Oc2ccc([N+](=O)[O-])cc2)N1` (stereo unspecified) came in with a logP of 1.85. In turn, `CCOC(=O)CN1C(=O)CC1Oc1ccc(C(=O)C=Cc2ccccc2)cc1` (stereo unspecified) returned a logP of 3.3. The value for `CCOC(=O)CN1C(=O)CC1Oc1ccc(C(=O)c2ccccc2)cc1` (stereo unspecified) was 3. `O=C1CC(Sc2ccc3ccccc3c2)N1` (stereo unspecified) had a logP of 2.64. The value for `O=C1C[C@@H](Sc2ccccc2)N1` was 1.91; that for `O=C1CC(Oc2ccc(C(=O)/C=C/c3ccccc3)cc2)N1` (stereo unspecified) was 2.56. The value for `CC(C)(C)OC(=O)CN1C(=O)CC1Oc1ccc2ccccc2c1` (stereo unspecified) was 3.6; that for `O=C1CC(Sc2ccc(Cl)cc2)N1` (stereo unspecified) was 2.31.

Take `CCOC(=O)CN1C(=O)CC1Oc1ccc2ccccc2c1` (stereo unspecified): the logP was found to be 2.8.

Take `O=C1CC(Oc2ccc(-c3ccccc3)cc2)N1` (stereo unspecified): the logP is 2.61. Take `O=C1CC(Oc2cccc(C(=O)OCc3ccccc3)c2)N1` (stereo unspecified): the logP was determined as 2.83. As to `O=C1CC(Oc2ccccc2)N1` (stereo unspecified), the logP is 1.94. `CCOC(=O)CN1C(=O)CC1Sc1ccc2ccccc2c1` (stereo unspecified) registered a logP of 3.4. On to `O=C1CC(Oc2ccccc2C(=O)c2ccccc2)N1` (stereo unspecified), for which the logP came out at 1.83.

`O=C1CC(Oc2ccc(C(=O)c3ccccc3)cc2)N1` (stereo unspecified) displayed a logP of 2.14.

Broadly, the logP is the decadic logarithm of the partition coefficient of the neutral form, usually between octanol and water. A high value points to higher lipophilicity.

For the origin of these results see the SangsterLogP compilation.
